Earlier results in paper PMC3170264 (Retrovirology, 2011).

Tested on: Y143 mutant HIV-1 integrase
Settings: cited from earlier work

## COc1cc2c(cc1Cc1cccc(Cl)c1F)c(=O)c(C(=O)O)cn2[C@H](CO)C(C)C [elvitegravir]
  activity against Y143 mutant HIV-1 integrase: fully active
